Experiment in all cases: DTP human tumour cell line panel, 48 h
For experiment [1], the system named is A549 NSCLC.
Experiment [2] relates to CCRF-CEM leukemia.
Experiment [3] concerns HCC-2998 colon.
Experiment [4] deals with HCT-15 colon.
The test system of experiment [5] is IGROV1 ovarian.
For experiment [6], the system named is LOX IMVI melanoma.
The test system of experiment [7] is NCI-H23 lung.
Experiment [8] concerns NCI-H522 lung.
Experiment [9] has as its system SK-MEL-2 melanoma.
The test system of experiment [10] is SW-620 colon.

Structures are written as SMILES.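 Results reflect a 48-hour exposure of cells in 96-well plates to compound at five concentrations. GI50 = concentration required for 50% inhibition of growth. TGI: total growth inhibition.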

In PubChem BioAssay (NCI) one finds GI50 and TGI data, which are given here for 7 molecules.

One may read the GI50 as the concentration that inhibits growth by half. For orientation: TGI means the concentration giving total growth inhibition. A low value points to more potent growth arrest. In the case of `O=C1/C(=C/c2ccc(F)cc2)CCOc2ccc([N+](=O)[O-])cc21`, the GI50 in experiment [1] was 8.47 µM; in [2], 0.761 µM; in experiment [3] it was 2.04 µM; in [4], 41.6 µM; in [5], 3.15 µM; in experiment [6] it was 35.9 µM. In addition, the GI50 is 1.95 µM in experiment [7], 1.91 µM in experiment [8], 3.17 µM in [9] and 1.35 µM in experiment [10]. Besides, the concentration for total growth inhibition (TGI) is 23.7 µM in experiment [1]; 3.47 µM in experiment [2]; 4.75 µM in [3]; more than 100 µM in experiment [4]; 10.8 µM in [5]; more than 100 µM in [6]. Besides, the TGI in experiment [7] is 4.51 µM; in experiment [8] it was 4.14 µM; in [9], 11.6 µM; in experiment [10] it was 4.04 µM.
As for `COC(=O)C(=O)CC(=O)CCn1ncc(Cl)c(Cl)c1=O`, the TGI in experiment [1] came to 36.5 µM; in [2], 9.72 µM; in experiment [3] it was 13.1 µM; in experiment [4], 15.7 µM; in [5], 33.4 µM; in experiment [6], 15.3 µM. The TGI in experiment [7] stood at 26.9 µM; in experiment [8], 7.35 µM; in [9] it was 32.5 µM; in experiment [10], 13.3 µM.
As to `COc1ccc(-c2cc(-c3cc(Cl)ccc3Cl)nc3[nH]c(-c4cc(F)c(Cl)cc4Cl)cc(=O)c23)cc1`, the GI50 is 14.2 µM in experiment [1]; 18.4 µM in [2]; 15.1 µM in [3]; 17.1 µM in [4]; 16.5 µM in [5]; 15.3 µM in experiment [6]. Besides, the GI50 was 14.7 µM in [7], 20.4 µM in experiment [8], 64.8 µM in [9] and 20 µM in experiment [10]. Moreover, the TGI was 74.7 µM in [1]; 55.1 µM in experiment [2]; 32.3 µM in experiment [3]; 56.1 µM in experiment [4]; more than 100 µM in [5]; 34.4 µM in experiment [6]. The TGI in experiment [7] was 55.8 µM; in experiment [8], more than 100 µM; in experiment [9], more than 100 µM; in [10], more than 100 µM.
On to `CCCCCCCCCCCCC(=O)OC(c1cnco1)c1nc(C(O)CC(O)C(O)C(C)O)co1` (centres undefined), for which the GI50 in experiment [1] is 0.88 µM; in [2], 0.838 µM; in experiment [3] it was 1.68 µM; in [5], 1.71 µM; in experiment [6] it was 0.735 µM; in experiment [7], 1.23 µM. Besides, the GI50 in [8] is 3.18 µM; in experiment [9], 4.79 µM; in experiment [10], 0.566 µM. The TGI in experiment [1] is more than 100 µM; in experiment [2] it was more than 61.5 µM; in experiment [3] it was more than 100 µM; in [4], more than 100 µM; in experiment [5] it was more than 100 µM; in [6] it was more than 42.4 µM. The TGI in [7] is 25 µM; in [8], more than 25.1 µM; in [9], more than 66 µM; in [10], more than 62.7 µM.
Turning to `CCOC(=O)C1=C(C)Nc2ccccc2S1`, the TGI in experiment [1], in experiment [2], in experiment [3], in experiment [4], in experiment [5] and in [6] was more than 100 µM throughout. In addition, the TGI in experiment [7], in experiment [8], in [9] and in experiment [10] was more than 100 µM in each case.
For `CN=C(N)N/N=C(\c1ccccc1)c1ccc(Br)cc1`, the GI50 is 0.394 µM in experiment [1]; 0.32 µM in experiment [2]; 0.38 µM in experiment [3]; 0.306 µM in [4]; 0.629 µM in [5]; 0.494 µM in experiment [6]. Further, the GI50 is 0.562 µM in [7], 0.21 µM in experiment [8], 0.359 µM in [9] and 0.417 µM in [10]. Besides, the TGI in experiment [1] came to 10.1 µM; in experiment [2], 4.66 µM; in experiment [3], 1.37 µM; in experiment [4], 7.24 µM; in [5] it was 17.1 µM; in experiment [6] it was 2.97 µM. Moreover, the TGI in [7] amounted to 11.8 µM; in experiment [8], 0.616 µM; in experiment [9] it was 1.97 µM; in experiment [10], 16.3 µM.
With `CSc1nc(SC)c2c(CN=[N+]=[N-])c(Br)n(Cc3ccccc3)c2n1`, the TGI in [1], in [2], in experiment [3], in experiment [4], in [5] and in experiment [6] was more than 100 µM each time. Besides, the TGI in experiment [7], in experiment [8], in experiment [9] and in [10] was more than 100 µM in each case.
